# Data from US20260092868A1, “METHOD FOR SCREENING FOR AUTOPHAGY MODULATOR” (THE ASAN FOUNDATION, priority 2022, published 2026).
# Legend:
# SNU475 cells [1] = assay: ODT setup linking three-dimensional ODT imaging and two-dimensional fluorescence; format: cell-based, human; conditions: SNU475 cells after treatment with thapsigargin, ODT plus 2D fluorescence
# Procedure: Additionally, changes in the endoplasmic reticulum and lysosomes in SNU475 cells treated with thapsigargin were analyzed using an ODT setup that can link three-dimensional ODT imaging and two-dimensional fluorescence. […] It was also confirmed that vesicles were produced in the ER region, followed by fusion with lysosomes.
# SNU475 cells [2] = assay: Fluorescent tracker (ER-tracker, lysosome-tracker, mito-tracker) imaging by super-resolution microscopy (Airyscan); format: cell-based, human
# Procedure: Changes in the endoplasmic reticulum and lysosomes were measured using a confocal microscope and fluorescent trackers. As the fluorescent trackers, ER-tracker, which enables the specific observation of only the endoplasmic reticulum, and lysosome-tracker, which enables the specific observation of only lysosomes, were used.
# Specifically, SNU475 cells were treated with thapsigargin (10 μM) and then stained with ER-tracker or lysosome-tracker, the kinetics of the endoplasmic reticulum and lyosomes were analyzed by super-resolution microscopy (Airyscan), and the results thereof are shown in FIG. 5.
# To confirm that high-density vesicles produced upon treatment with thapsigargin are specific to the endoplasmic reticulum, the kinetics of mitochondria were analyzed in the same manner as in 4.1 above by using mito-tracker, which is a mitochondria-specific tracker, and the results thereof are shown in FIG. 6.
# CCPG1 = assay: Colocalization of ER-phagy receptors with LC3 by immunofluorescence (IF); format: cell-based; conditions: 10 μM thapsigargin, IF (FIG. 7)
# Procedure: (§1) To measure the activation levels of an autophagy marker and an ER-phagy marker after treatment with thapsigargin, the colocalization of ER-phagy receptors was measured.
# (§2) More specifically, after treatment with thapsigargin (10 μM), the activation of CCPG1, FAM134B, RTN3, and SEC62 was examined by immunofluorescence (IF) analysis, and then the results thereof are shown in FIG. 7.
# FAM134B = assay: as above; format: cell-based; conditions: 10 μM thapsigargin, IF (FIG. 7)
# Procedure: as §1, §2
# SEC62 = assay: as above; format: cell-based; conditions: 10 μM thapsigargin, IF (FIG. 7)
# Procedure: as §1, §2
# RTN3 = assay: as above; format: cell-based; conditions: 10 μM thapsigargin, IF (FIG. 7)
# Procedure: as §1, §2
# SNU475 cells [3] = assay: Optical diffraction tomography (ODT) imaging of vesicles and organelles in SNU475 cells; format: cell-based, human
# Procedure: To confirm changes in vesicles upon treatment with an autophagy modulator, SNU475 cells, which are a human hepatoma cell line, were treated with 10 μM thapsigargin, which is an autophagy activator, and then the changes in vesicles in the cells were examined.
# More specifically, a SNU475 cell line was prepared in a TomoDish and the SNU475 cells were treated with 10 μM thapsigargin, and then optical diffraction tomography (ODT) images were generated by using HT-2H fluorescence holotomography (Tomocube).
# SNU475 cells were treated with 10 μM thapsigargin to induce ER stress, and then changes in the refractive index and radius of vesicles produced in the cells were measured on the basis of images confirmed in Example 1, and the results thereof are shown in FIG. 2. In addition, SNU475 cells were treated with 10 μM thapsigargin, and the number and volume of vesicles in the SNU475 cells treated with thapsigargin were observed over time for 2 hours, and the results thereof are shown in FIG. 3.
# To confirm statistical changes in the density and refractive index of vesicles and organelles upon treatment with thapsigargin, the densities and refractive indices of cells before and after SNU475 cells were treated with thapsigargin (10 μM) were compared. In addition, to confirm changes in the densities of organelles upon treatment with thapsigargin, the refractive indices of a nucleolus (No), an endoplasmic reticulum (ER), a cytosol (Cyt), and a plasma membrane (PM) were measured.
# To confirm whether the same results as the case of thapsigargin can be obtained upon treatment with autophagy modulators other than thapsigargin, SNU475 cells were treated with each of CPA (20 μM) and TC (60 ug/mL) to induce ER stress, and then changes in vesicles produced in the cells were observed using HT-2H fluorescence holotomography (Tomocube). For observation, optical diffraction tomography (ODT) images 10 hours after treatment with CPA and ODT images 2 hours after treatment with TC were generated, and the results thereof are shown in FIG. 8.
# [4] = 10 μM thapsigargin, observed for 2 hours (FIG. 3)
Molecule,colocalization of high-density vesicles produced in the cytoplasm (SNU475 cells [1]),"production of vesicles and lysosomes containing ER components (SNU475 cells [2]; 10 μM thapsigargin, ER-tracker or lysosome-tracker (FIG. 5))","time difference of production of large lysosomes relative to the ER (SNU475 cells [2]; 10 μM thapsigargin, lysosome-tracker (FIG. 5B))","mitochondrial components in high-density vesicles (SNU475 cells [2]; thapsigargin, mito-tracker (FIG. 6))",activation of CCPG1 through colocalization with LC3 (CCPG1),activation of FAM134B through colocalization with LC3 (FAM134B),activation of SEC62 through colocalization with LC3 (SEC62),activation of RTN3 through colocalization with LC3 (RTN3),change in the refractive index of vesicles over time (SNU475 cells [3]; 10 μM thapsigargin (FIG. 2A)),change in the radius of vesicles over time (SNU475 cells [3]; 10 μM thapsigargin (FIG. 2B)),ER-phagy induction (SNU475 cells [3]; 10 μM thapsigargin (FIG. 4)),density of induced vesicles compared with the endoplasmic reticulum (SNU475 cells [3]; 10 μM thapsigargin (FIG. 4)),"generation of high-density vesicles (SNU475 cells [3]; 10 μM thapsigargin, ODT images (FIG. 1))",change in the total number of vesicles over time (SNU475 cells [3]; [4]),change in volume of vesicles over time (SNU475 cells [3]; [4]),density of the endoplasmic reticulum upon treatment (SNU475 cells [3]; before and after 10 μM thapsigargin (FIG. 4C)),"change in vesicles (SNU475 cells [3]; TC 60 ug/mL, ODT images 2 hours after treatment (FIG. 8B))"
C/C=C(/C)C(=O)O[C@H]1C(C)=C2[C@H]([C@@H]1OC(=O)CCCCCCC)[C@@](C)(OC(C)=O)C[C@H](OC(=O)CCC)[C@@]1(O)[C@H]2OC(=O)[C@@]1(C)O [thapsigargin],specifically colocalized with the endoplasmic reticulum and lysosomes,vesicles and lysosomes that contain ER components were produced,about 15 minutes,did not include mitochondrial components,activated,activated,activated,activated,decreased over time,increased over time,induced,higher density than the endoplasmic reticulum,high-density vesicles were generated,decreased over time,increased over time,decreased,–
tunicamycin [TC],–,–,–,–,–,–,–,–,–,–,–,–,–,–,–,–,the same changes in the vesicles as those upon treatment with thapsigargin occurred
